In general, inhibition refers to the relative decrease from the control value, in per cent. By IC50 is commonly meant the concentration at which inhibition is half-maximal.

From ChEMBL document CHEMBL4402595, “Discovery of Orally Bioavailable Chromone Derivatives as Potent and Selective BRD4 Inhibitors: Scaffold Hopping, Optimization, and Pharmacological Evaluation” (J Med Chem, 2020) come the findings set out here.

Experiment [1] deals with T1, Bromodomain-containing protein 4 (Homo sapiens, UniProt O60885). As to the kind of experiment: Inhibition of BRD4 in poly(I:C)-stimulated human SAECs TLR3-inducible CIG5 gene expression at 10 uM pre-incubated for 24 hrs before poly(I:C) stimulation for 4 hrs by qRT-PCR analysis relative to control.
The target in experiment [2] is T1, Bromodomain-containing protein 4. As to the kind of experiment: Inhibition of BRD4 in poly(I:C)-stimulated human SAECs TLR3-inducible IL-6 gene expression at 10 uM pre-incubated for 24 hrs before poly(I:C) stimulation for 4 hrs by qRT-PCR analysis relative to control.
Experiment [3] has the same target. As to the kind of experiment: Binding affinity to recombinant BRD4 BD2 (unknown origin) incubated for 1 hr by TR-FRET assay. On the technique in general: In TR-FRET formats the signal depends on donor and acceptor labels being close together.
The target is the same in experiment [4]. As to the kind of experiment: Inhibition of BRD4 in poly(I:C)-stimulated human SAECs TLR3-inducible CIG5 gene expression pre-incubated for 24 hrs before poly(I:C) stimulation for 4 hrs by qRT-PCR analysis. (In general: Quantitative PCR measures a nucleic acid by following its amplification.)
Experiment [5] concerns the target Bromodomain-containing protein 2 (Homo sapiens, UniProt P25440). As to the kind of experiment: Binding affinity to recombinant BRD2 BD2 (unknown origin) incubated for 1 hr by TR-FRET assay.
The target of experiment [6] is T1, Bromodomain-containing protein 4. Description: Inhibition of BRD4 in poly(I:C)-stimulated human SAECs TLR3-inducible IL-6 gene expression pre-incubated for 24 hrs before poly(I:C) stimulation for 4 hrs by qRT-PCR analysis.

Bromodomain-containing protein 2, sequence (P25440 whole entry): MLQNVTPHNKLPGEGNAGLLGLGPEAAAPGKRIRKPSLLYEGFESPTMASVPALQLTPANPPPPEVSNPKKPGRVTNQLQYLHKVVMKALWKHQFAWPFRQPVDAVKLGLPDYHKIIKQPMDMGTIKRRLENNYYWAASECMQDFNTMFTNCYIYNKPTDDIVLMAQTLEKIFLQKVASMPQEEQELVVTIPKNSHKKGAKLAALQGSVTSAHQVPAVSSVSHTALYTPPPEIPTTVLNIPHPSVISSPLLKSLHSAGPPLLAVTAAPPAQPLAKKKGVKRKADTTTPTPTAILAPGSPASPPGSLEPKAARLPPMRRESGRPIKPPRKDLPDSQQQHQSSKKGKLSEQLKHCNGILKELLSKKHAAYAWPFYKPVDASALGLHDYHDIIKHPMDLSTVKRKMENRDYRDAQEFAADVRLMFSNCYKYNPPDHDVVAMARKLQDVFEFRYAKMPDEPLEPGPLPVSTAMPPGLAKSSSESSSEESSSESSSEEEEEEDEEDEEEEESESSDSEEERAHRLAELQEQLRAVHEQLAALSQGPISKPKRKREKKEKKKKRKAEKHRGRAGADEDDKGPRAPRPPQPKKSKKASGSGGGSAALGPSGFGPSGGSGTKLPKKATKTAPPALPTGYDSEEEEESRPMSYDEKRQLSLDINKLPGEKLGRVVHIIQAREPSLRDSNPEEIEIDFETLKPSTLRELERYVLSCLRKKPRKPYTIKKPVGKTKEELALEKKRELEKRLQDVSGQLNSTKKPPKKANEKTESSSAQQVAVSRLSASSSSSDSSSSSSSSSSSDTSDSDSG

In the case of `Cc1cc(-c2nc3ccc(Br)cc3c(=O)[nH]2)cc(C)c1O`, the figures for the inhibition in experiment [1] and in experiment [2] were 43% and 25%, respectively.

Regarding `COc1cc(OC)c2c(=O)cc(-c3cc(C)c(OC[C@@H](F)CN4CCCCC4)c(C)c3)oc2c1`, the results for the inhibition in experiment [1] and in experiment [2] were 85% and 90%, respectively.

Consider `COc1cc(OC)c2c(=O)[nH]c(-c3ccc(C(F)(F)F)cc3)nc2c1`, for which the inhibition in experiment [1] is 45%.

In the case of `COc1cc(OC)c2c(=O)cc(-c3cc(C)c(OC[C@@H](O)CN4CCCCC4)c(C)c3)oc2c1`, the inhibition in experiment [1] and in experiment [2] was 100% each time. Besides, the IC50 came out at 0.093 µM in experiment [3], 0.58 µM in experiment [4], 1.2 µM in experiment [5] and 0.54 µM in experiment [6].

As for `Cc1cc(-c2nc3cc(Br)ccc3c(=O)[nH]2)cc(C)c1O`, the inhibition in experiment [1] was determined as 51%; in experiment [2], 15%.

For `COc1cc(OC)c2c(=O)[nH]c(-c3ccc(C(F)(F)F)c(C)c3)nc2c1`, the inhibition in experiment [2] amounted to 45%.

Consider `COc1cc(OC)c2c(=O)cc(-c3cc(C)c(OCCO)c(C)c3)oc2c1`, for which the inhibition is 97% in experiment [1] and 98% in experiment [2]. Also, the IC50 in experiment [4] worked out at 2.6 µM; in experiment [6], 2.8 µM.

For the compound `Cc1cc(-c2nc3cccc(F)c3c(=O)[nH]2)cc(C)c1O`, the inhibition stood at 33% in experiment [1] and 62% in experiment [2].

For `COc1cc(OC)c2c(=O)cc(-c3cc(C)c(OC[C@H](O)CN(C)C)c(C)c3)oc2c1`, the inhibition in experiment [2] was found to be 82%.

Consider `Cc1cc(-c2nc3ccccc3c(=O)[nH]2)cc(C)c1O`, for which, in experiment [2], the inhibition worked out at 81%.

For `COc1cc(OC)c2c(=O)[nH]c(-c3cc(C)c(OC[C@@H](O)CN4CCN(C)CC4)c(C)c3)nc2c1`, the inhibition in experiment [1] stood at 83%; in experiment [2], 80%. Moreover, the 50% inhibitory concentration (IC50) in experiment [4] was 2.6 µM; in experiment [6], 3.5 µM.

With `Cc1cc(-c2nc3cc(-c4ccn(C)n4)ccc3c(=O)[nH]2)cc(C)c1O`, in experiment [1], the inhibition was found to be 71%.

`Cc1cc(-c2nc3cc([N+](=O)[O-])ccc3c(=O)n2C)cc(C)c1O`: the inhibition in experiment [2] came out at 86%.

As for `C=CCOc1c(C)cc(-c2cc(=O)c3c(OC)cc(OC)cc3o2)cc1C`, the inhibition in experiment [1] amounted to 83%.

In the case of `COc1cc(OC)c2c(=O)[nH]c(-c3cc(C)c(O)c(C)c3)nc2c1`, in experiment [2], the inhibition came out at 75%.

`Cc1cc(-c2nc3ccc(Cl)cc3c(=O)[nH]2)cc(C)c1O`: the inhibition was determined as 37% in experiment [1] and 53% in experiment [2].

`Cc1cc(-c2nc3ccc(F)cc3c(=O)[nH]2)cc(C)c1O`: the figures for the inhibition in experiment [1] and in experiment [2] were -4.5% and 62%, respectively.

Take `COc1cc(OC)c2c(=O)cc(-c3cc(C)c(OC[C@H](O)CN4CCC(F)(F)CC4)c(C)c3)oc2c1`: the values for the inhibition in experiment [1] and in experiment [2] were 63% and 88%, respectively.

As for `COc1cc(OC)c2c(=O)cc(-c3cc(C)c(OC[C@H](O)CN4CCCC4)c(C)c3)oc2c1`, the inhibition in experiment [1] is 92%; in experiment [2], 99%. Further, the 50% inhibitory concentration (IC50) in experiment [4] turned out to be 1.48 µM; in experiment [6], 0.97 µM.

For the compound `COc1cc(OC)c2c(=O)cc(-c3cc(C)c(OC[C@H](O)CN4CCOCC4)c(C)c3)oc2c1`, the inhibition in experiment [1] was found to be 42%; in experiment [2], 82%.

As to `COc1cc(-c2nc3ccccc3c(=O)[nH]2)cc(OC)c1O`, the inhibition in experiment [1] was found to be 61%; in experiment [2], 59%.

With `COc1cc(OC)c2c(=O)[nH]c(-c3ccc(O)cc3Cl)nc2c1`, the inhibition was found to be 42% in experiment [1] and 66% in experiment [2].

With `Cc1cc(-c2nc3ccccc3c(=O)n2C)cc(C)c1O`, the inhibition in experiment [1] was 18%; in experiment [2], 55%.

In the case of `COc1cc(OC)c2c(=O)[nH]c(-c3cc(C)c(OC[C@@H]4CO4)c(C)c3)nc2c1`, the inhibition in experiment [1] turned out to be 87%; in experiment [2] it was 83%.

Regarding `O=c1[nH]c(-c2cc(F)c(O)cc2F)nc2ccccc12`, the inhibition in experiment [1] worked out at 2.2%; in experiment [2], 59%.

In the case of `COc1cc(OC)c2c(=O)[nH]c(-c3cc(C)c(OCCO)c(C)c3)nc2c1`, the inhibition in experiment [1] is 84%; in experiment [2], 65%.

As to `COc1cc(OC)c2c(=O)[nH]c(-c3ccc(O)cc3)nc2c1`, the figures for the inhibition in experiment [1] and in experiment [2] were 81% and 63%, respectively.
